Results as given in patent publication US10023592B2, “Bromodomain inhibitors” (Celgene Quanticel Research, Inc., priority 2013, dated 2018).
pIC50: −log10 of the molar value. Read-outs that look alike come from different tables or passages of the source.

Legend:
[1] = tested on: HL-60, human proleukemia cells; test: Cell-MTS proliferation assay, HL-60; assay type: cell-based; conditions: Homo sapiens, 168 hr
Outline: (§1)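 Cells were seeded per 96-well at densities giving ~90% confluence by day 7 (Raji 15,000, HL-60 5,000, NCI-H460 3,000) and dosed 24 hr later with an 11-point dilution, 100 μM to 2.0 nM final. Seven-day MTS colorimetric read at OD490; IC50 from background-subtracted, DMSO-normalised values.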

[2] = target: BRD4(BD1) (Homo sapiens (Human), UniProt O60885); test: In vitro enzyme inhibition assay (BRD4 AlphaScreen); assay type: binding
Outline: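 AlphaScreen proximity readout, using streptavidin donor and Ni-chelate acceptor beads at 5 μg/mL final, monitors biotin-H4 tetraacetylated peptide interaction with purified His-tagged BRD4.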

[3] = tested on: Raji, human Burkitts lymphoma cells; test: Cell-MTS proliferation assay, Raji; assay type: cell-based; conditions: Homo sapiens, 168 hr
Outline: as §1

[4] = tested on: NCI-H460, human non-small cell lung cancer cells; test: Cell-MTS proliferation assay, NCI-H460; assay type: cell-based; conditions: Homo sapiens, 168 hr
Outline: as §1

[5] = HL-60, Cell-MTS, class symbols A/B/C
[6] = Raji, Cell-MTS, class symbols A/B/C
[7] = NCI-H460, Cell-MTS, class symbols A/B/C
[8] = in vitro enzyme inhibition assay
[9] = NCI-H460, Cell-MTS proliferation
[10] = Cell-MTS proliferation, HL-60 cells
[11] = Cell-MTS proliferation, Raji cells
[12] = Cell-MTS proliferation, NCI-H460 cells

pIC50 ([1]; HL-60, Cell-MTS proliferation)	pIC50 [2, 8]	pIC50 ([3]; Raji, Cell-MTS proliferation)	pIC50 [4, 9]	pIC50 [1, 10]	pIC50 [3, 11]	pIC50 [4, 12]	Compound	further results
5.30 to 6.30	> 6.30	5.30 to 6.30	< 5.30				Cn1cc(Oc2cc(-c3cc(S(C)(=O)=O)ccc3OCC3CC3)cn(C)c2=O)cn1 [Example 293, 5-[2-(cyclopropylmethoxy)-5-methylsulfonylphenyl]-1-methyl-3-(1-methylpyrazol-4-yl)oxypyridin-2-one]	
	> 6.30			> 6.30	> 6.30	< 5.30	CCS(=O)(=O)Nc1ccc(OC2CCOCC2)c(-c2cc(C)c(=O)n(C)c2)c1 [Example 441, N-[3-(1,5-dimethyl-6-oxopyridin-3-yl)-4-(oxan-4-yloxy)phenyl]ethanesulfonamide]	
	> 6.30			> 6.30	5.30 to 6.30	< 5.30	CCS(=O)(=O)c1ccc(Oc2ccc(F)cc2F)c(-c2cn(C)c(=O)c3cncn23)c1 [Example 376, 5-[2-(2,4-difluorophenoxy)-5-ethylsulfonylphenyl]-7-methylimidazo[1,5-a]pyrazin-8-one]	
	> 6.30			> 6.30	5.30 to 6.30	< 5.30	CC#CCOc1ccc(S(=O)(=O)CC)cc1-c1cc(OC)c(=O)n(C)c1 [Example 389, 5-(2-but-2-ynoxy-5-ethylsulfonylphenyl)-3-methoxy-1-methylpyridin-2-one]	

Second part, the molecule before the results:

Compound	pIC50 ([1]; HL-60, Cell-MTS proliferation)	pIC50 [2, 8]	pIC50 ([3]; Raji, Cell-MTS proliferation)	pIC50 [4, 9]	pIC50 [1, 10]	pIC50 [3, 11]	pIC50 [4, 12]	further results
Cn1cc(-c2cc(S(C)(=O)=O)ccc2Oc2ccc(F)cc2F)cc(F)c1=O [Example 120, 5-[2-(2,4-difluorophenoxy)-5-methylsulfonylphenyl]-3-fluoro-1-methylpyridin-2-one]								pIC50 [1, 5]: 5.30 to 6.30; pIC50 ([2]; class symbols A/B/C): 5.30 to 6.30; pIC50 [3, 6]: < 5.30; pIC50 [4, 7]: < 5.30
Cc1cc(-c2nc(S(C)(=O)=O)ncc2Oc2ccc(F)cc2F)cn(C)c1=O [Example 149, 5-[5-(2,4-difluorophenoxy)-2-methylsulfonylpyrimidin-4-yl]-1,3-dimethylpyridin-2-one]	< 5.30	5.30 to 6.30	< 5.30	< 5.30				
COc1ccc(-c2cn(C)c(=O)c3cncn23)cc1NS(C)(=O)=O [Example 132, N-[2-methoxy-5-(7-methyl-8-oxoimidazo[1,5-a]pyrazin-5-yl)phenyl]methanesulfonamide]								pIC50 [1, 5]: 5.30 to 6.30; pIC50 ([2]; class symbols A/B/C): 5.30 to 6.30; pIC50 [3, 6]: < 5.30; pIC50 [4, 7]: 5.30 to 6.30
Cc1cc(-c2cc(S(C)(=O)=O)ccc2Nc2ccc(F)cc2F)cn(C)c1=O [Example 398, 5-[2-(2,4-difluoroanilino)-5-methylsulfonylphenyl]-1,3-dimethylpyridin-2-one]		> 6.30			> 6.30	5.30 to 6.30	< 5.30	
Cn1cc(-c2nc(S(C)(=O)=O)ccc2OCC2CC2)c2ccccc2c1=O [Example 199, 4-[3-(cyclopropylmethoxy)-6-methylsulfonylpyridin-2-yl]-2-methylisoquinolin-1-one]	> 6.30	> 6.30	> 6.30	< 5.30				
Cn1cc(-c2cc(S(C)(=O)=O)ccc2NCC2CC2)c2ccccc2c1=O [Example 194, 4-[2-(cyclopropylmethylamino)-5-methylsulfonylphenyl]-2-methylisoquinolin-1-one]	> 6.30		> 6.30	< 5.30				pIC50 [2]: > 6.30
Cn1cc(-c2cc(S(C)(=O)=O)ccc2OCC2CC2)cc(N)c1=O [Example 116, 3-amino-5-[2-(cyclopropylmethoxy)-5-methylsulfonylphenyl]-1-methylpyridin-2-one]								pIC50 [1, 5]: 5.30 to 6.30; pIC50 ([2]; class symbols A/B/C): > 6.30; pIC50 [3, 6]: < 5.30; pIC50 [4, 7]: < 5.30
Cn1cc(-c2cc(S(C)(=O)=O)ccc2O[C@H]2CC[C@H](O)CC2)c2ccc(F)cc2c1=O [Example 187, 7-fluoro-4-[2-(trans-4-hydroxycyclohexyl)oxy-5-methylsulfonylphenyl]-2-methylisoquinolin-1-one]	> 6.30	> 6.30	> 6.30	< 5.30				
